For eleven molecules, EC50 results are on record in patent US12454529B2, “Piperazine cyclic ureas” (SIRONAX LTD., priority 2020, dated 2025).

In general, EC50 refers to the concentration at which the effect is half-maximal.

Like-named read-outs stand apart in the source and are kept apart here.

The subject of the test is HT-29 cells. The experiment in a line: HT-29 cell necrosis/necroptosis inhibition (TNF-α + SMAC mimetic + zVAD-FMK; CellTiter-Glo cell viability). The class given is cell-based. The following applies: Homo sapiens, HT-29 cells, TNF-α 10 ng/ml + SMAC mimetic 6 μM + zVAD-FMK 10 μM, 20 hours, geometric mean, 10 points in duplicate. A digest of the protocol:
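Necroptosis was driven by TNF-α 10 ng/ml plus SMAC mimetic 6 μM and zVAD-FMK 10 μM in serum-free medium, with compounds as a 10-point threefold titration. After 20 h at 37 °C, ATP-based luminescence was read; EC50 values are geometric means of duplicate curves.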
(Cellular ATP, detected with luciferase, serves as a proxy for viable cell number.)

Where [1] appears, read: read-out: EC50 (Cell activity; Necrosis/Necroptosis Inhibitory Activity, Compounds 1-142).
Where [2] appears, read: read-out: EC50 (Cell activity; Necrosis/Necroptosis Inhibitory Activity, Compounds 143-323).

Consider `N#Cc1cc(F)cc([C@@H]2CC=NN2C(=O)N2CCN(c3ncc(F)c(-c4cn[nH]c4)n3)CC2)c1` [Compound 54, (S)-3-fluoro-5-(1-(4-(5-fluoro-4-(1H-pyrazol-4-yl)pyrimidinyl)piperazine-1-carbonyl)-4,5-dihydro-1H-pyrazol-5-yl)benzonitrile], for which, under setting [1], the EC50 lay in the range of 0.1 to 100 nM. As to `Cc1nn(-c2cc(N3CCN(C(=O)N4N=CC[C@H]4c4cc(F)cc(C#N)c4)CC3)ncn2)c(C)c1C#N` [Compound 279, (S)-1-(6-(4-(5-(3-cyano-5-fluorophenyl)-4,5-dihydro-1H-pyrazole-1-carbonyl)piperazin-1-yl)pyrimidin-4-yl)-3,5-dimethyl-1H-pyrazole-4-carbonitrile], under setting [2], the EC50 lay in the range of 0.1 to 100 nM. On the same count and under the same terms, to `Cn1nc(C(=O)O)nc1-c1nc(N2CCN(C(=O)N3N=CCC3c3cc(F)cc(F)c3)CC2)ncc1F` (centres unmarked) [Compound 230, 5-(2-(4-(5-(3,5-difluorophenyl)-4,5-dihydro-1H-pyrazole-1-carbonyl)piperazin-1-yl)-5-fluoropyrimidin-4-yl)-1-methyl-1H-1,2,4-triazole-3-carboxylic acid] belongs 100 to 1000 nM. As for `Cc1nnnn1-c1nc(N2CCN(C(=O)N3N=CC[C@H]3c3cc(F)cc(F)c3)CC2)ncc1F` [Compound 23, (S)-(5-(3,5-difluorophenyl)-4,5-dihydro-1H-pyrazol-1-yl)(4-(5-fluoro-4-(5-methyl-1H-tetrazol-1-yl)pyrimidin-2-yl)piperazin-1-yl)methanone], under setting [1], the EC50 lay within 0.1 to 100 nM.

`Cc1nn(CC(N)=O)nc1-c1nc(N2CCN(C(=O)N3N=CC[C@H]3c3cc(F)cc(C#N)c3)CC2)ncc1F` [Compound 78, (S)-2-(4-(2-(4-(5-(3-cyano-5-fluorophenyl)-4,5-dihydro-1H-pyrazole-1-carbonyl)piperazin-1-yl)-5-fluoropyrimidin-4-yl)-5-methyl-2H-1,2,3-triazol-2-yl)acetamide]: the EC50 under setting [1] is 0.1 to 100 nM. Regarding `Cc1nn(-c2nc(N3CCN(C(=O)N4N=CC[C@H]4c4cc(F)cc(C#N)c4)CC3)ncc2F)c(C)c1C#N` [Compound 275, (S)-1-(2-(4-(5-(3-cyano-5-fluorophenyl)-4,5-dihydro-1H-pyrazole-1-carbonyl)piperazin-1-yl)-5-fluoropyrimidin-4-yl)-3,5-dimethyl-1H-pyrazole-4-carbonitrile], under setting [2], the EC50 was 0.1 to 100 nM. Still for that read-out and setting: next, `Cc1cnn(C)c1-c1ncc(F)c(N2CCN(C(=O)N3N=CCC3c3cncs3)CC2)n1` (centres unmarked) [Compound 159, (4-(2-(1,4-dimethyl-1H-pyrazol-5-yl)-5-fluoropyrimidin-4-yl)piperazin-1-yl)(5-(thiazol-5-yl)-4,5-dihydro-1H-pyrazol-1-yl)methanone]: 0.1 to 100 nM.

As to `N#Cc1cc(F)cc([C@@H]2CC=NN2C(=O)N2CCN(c3ncc(F)c(-n4cc(C(N)=O)cn4)n3)CC2)c1` [Compound 107, (S)-1-(2-(4-(5-(3-cyano-5-fluorophenyl)-4,5-dihydro-1H-pyrazole-1-carbonyl)piperazin-1-yl)-5-fluoropyrimidin-4-yl)-1H-pyrazole-4-carboxamide], the EC50 under setting [1] is 0.1 to 100 nM.

On to `Cc1nc(C2CC=NN2C(=O)N2CCN(c3ncc(F)c(-c4nnc(C)s4)n3)CC2)co1` (centres unmarked) [Compound 209, (4-(5-fluoro-4-(5-methyl-1,3,4-thiadiazol-2-yl)pyrimidin-2-yl)piperazin-1-yl)(5-(2-methyloxazol-4-yl)-4,5-dihydro-1H-pyrazol-1-yl)methanone], for which the EC50 under setting [2] lay within 100 to 1000 nM. On the same count and under the same terms, to `Cc1nc(C)n(-c2nc(N3CCN(C(=O)N4N=CCC4c4cscn4)CC3)ncc2F)n1` (centres unmarked) [Compound 212, (4-(4-(3,5-dimethyl-1H-1,2,4-triazol-1-yl)-5-fluoropyrimidin-2-yl)piperazin-1-yl)(5-(thiazol-4-yl)-4,5-dihydro-1H-pyrazol-1-yl)methanone] belongs 100 to 1000 nM. With `Cc1cc(-c2nc(N3CCN(C(=O)N4N=CC[C@H]4c4cc(F)cc(F)c4)CC3)ncc2F)n(C)n1` [Compound 83, (S)-(5-(3,5-difluorophenyl)-4,5-dihydro-1H-pyrazol-1-yl)(4-(4-(1,3-dimethyl-1H-pyrazol-5-yl)-5-fluoropyrimidin-2-yl)piperazin-1-yl)methanone], the EC50 under setting [1] lay in the range of 0.1 to 100 nM.
